Patent US11787847B2, “Method of identifying malodor modulating compounds” (FIRMENICH SA, priority 2017, dated 2023)

Legend:
Assay in all cases: cell-based dose-response, cAMP increase by HTRF, HEK293T cells (endogenous RTP1 activated) co-transfected with human Golf, Lucy-FLAG-Rho tagged receptor
mouse receptor Olfr742 = target: T1, mouse receptor Olfr742 (Mus musculus, UniProt A2RTP5)
T1 construct: cAMP HTRF
T1 sequence (A2RTP5 1-311): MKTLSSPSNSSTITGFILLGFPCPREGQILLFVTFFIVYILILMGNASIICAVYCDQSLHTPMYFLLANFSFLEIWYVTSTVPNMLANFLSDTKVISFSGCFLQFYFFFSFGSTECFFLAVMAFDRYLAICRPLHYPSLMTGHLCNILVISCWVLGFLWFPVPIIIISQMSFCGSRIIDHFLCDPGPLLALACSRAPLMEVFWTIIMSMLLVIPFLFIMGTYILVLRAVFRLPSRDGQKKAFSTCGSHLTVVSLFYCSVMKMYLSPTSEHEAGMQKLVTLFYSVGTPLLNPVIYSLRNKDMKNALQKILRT
Description: (§1) Functional dose-response experiments were performed to evaluate the level of DMTS activity of the modified cell line expressing individual putative DMTS receptors. Using a cell-based assay, mouse receptor Olfr1193, Olfr1093, Olfr1097, Olrf166, Olfr169, Olfr738 and Olfr742, and human receptor OR4S2 and OR52N5 were tested in an HEK293T cell line wherein the endogenous RTP1 gene has been activated and the odorant receptor chaperone protein was expressed (described in WO2016/201153). The mouse receptor genes were tagged with a Lucy-FLAG®-Rho tag combination and the human receptors were tagged with a Rho-FLAG® tag combination resulting in a tag:receptor fusion protein for the cell based assay. Receptor genes were co-transfected with the canonical olfactory human G-protein alpha subunit Golf gene and were exposed to increasing concentrations of the malodor odorant. Co-expression of the human Golf activates the Gs transduction pathway that leads to an internal cAMP increase upon binding to the appropriate ligand. Odorant-induced activity was detected by measuring the cAMP increase in the cytosol using an Homogeneous Time Resolved Fluorescence (HTRF) based kit (CisBio, cAMP dynamic 2 kit, cat. 62AM4PEJ). […] The activity levels are reported by the potency of the DMTS induced-response for each receptor as a measure of the EC50 value (the effective concentration at which the receptor responds at its half-maximal activation efficacy level for a given compound).
(§2) Functional dose-response experiments were performed to confirm the DMTS activity on the DMTS receptors identified in Example 2 and to further characterize their response to DMDS. Using the same cell-based assay described in Example 2, mouse receptors Olfr1193, Olfr1093, Olfr1097, Olfr166, Olfr169, Olfr738, Olfr742 and of human odorant receptor OR4S2 were tested with increasing concentration of DMTS, DMDS or butyric acid (control). […] A weak response for OR4S2 and Olfr169 to butyric acid was visible but was too weak to consider butyric acid as a representative ligand for these receptors. The activity levels are reported by the potency of DMTS or DMDS induced-response for each receptor as a measure of the EC50 value, EC50DMTS and EC50DMDS respectively. […] Competitive antagonists at the malodor binding site of these receptors have the potential to reduce the unpleasant perception of both DMTS and DMDS.

mouse receptor Olfr1093 = target: T2, mouse receptor Olfr1093 (Mus musculus, UniProt B2RR12)
T2 construct: cAMP HTRF
T2 sequence (B2RR12 1-322): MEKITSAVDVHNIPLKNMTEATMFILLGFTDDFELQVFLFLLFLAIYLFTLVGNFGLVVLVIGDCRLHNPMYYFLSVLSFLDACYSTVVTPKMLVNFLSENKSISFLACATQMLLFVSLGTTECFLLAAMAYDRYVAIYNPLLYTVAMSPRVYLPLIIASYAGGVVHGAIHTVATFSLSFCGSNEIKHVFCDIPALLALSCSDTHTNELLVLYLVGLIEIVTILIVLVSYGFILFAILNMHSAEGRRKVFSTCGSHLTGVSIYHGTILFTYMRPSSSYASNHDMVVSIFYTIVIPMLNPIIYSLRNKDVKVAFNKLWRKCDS
Description: as §1, §2

mouse receptor Olfr738 = target: T3, mouse receptor Olfr738 (Mus musculus, UniProt L7N1X7)
T3 construct: cAMP HTRF
T3 sequence (L7N1X7 1-311): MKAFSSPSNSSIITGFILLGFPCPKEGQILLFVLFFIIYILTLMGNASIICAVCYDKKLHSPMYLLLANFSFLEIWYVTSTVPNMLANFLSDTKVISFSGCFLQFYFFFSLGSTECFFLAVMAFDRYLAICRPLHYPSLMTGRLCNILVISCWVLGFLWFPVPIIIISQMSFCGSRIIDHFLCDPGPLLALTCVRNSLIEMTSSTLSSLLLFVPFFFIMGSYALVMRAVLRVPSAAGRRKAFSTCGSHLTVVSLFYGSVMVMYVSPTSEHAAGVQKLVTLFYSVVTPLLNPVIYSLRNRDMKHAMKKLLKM
Description: as §1, §2

mouse receptor Olfr1193 = target: T4, mouse receptor Olfr1193 (Mus musculus, UniProt A2AV13)
T4 construct: cAMP HTRF
T4 sequence (A2AV13 1-318): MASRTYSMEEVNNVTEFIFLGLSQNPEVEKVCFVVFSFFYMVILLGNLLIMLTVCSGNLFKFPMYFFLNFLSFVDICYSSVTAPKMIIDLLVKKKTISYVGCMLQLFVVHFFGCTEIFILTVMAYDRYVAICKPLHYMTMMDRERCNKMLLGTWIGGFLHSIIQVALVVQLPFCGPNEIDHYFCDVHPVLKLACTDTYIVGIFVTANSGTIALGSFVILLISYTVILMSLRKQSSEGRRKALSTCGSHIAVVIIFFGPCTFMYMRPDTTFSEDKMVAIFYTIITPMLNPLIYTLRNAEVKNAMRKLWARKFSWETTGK
Description: as §1, §2

mouse receptor Olfr169 = target: T5, mouse receptor Olfr169 (Mus musculus, UniProt Q7TS53)
T5 construct: cAMP HTRF
T5 sequence (Q7TS53 1-313): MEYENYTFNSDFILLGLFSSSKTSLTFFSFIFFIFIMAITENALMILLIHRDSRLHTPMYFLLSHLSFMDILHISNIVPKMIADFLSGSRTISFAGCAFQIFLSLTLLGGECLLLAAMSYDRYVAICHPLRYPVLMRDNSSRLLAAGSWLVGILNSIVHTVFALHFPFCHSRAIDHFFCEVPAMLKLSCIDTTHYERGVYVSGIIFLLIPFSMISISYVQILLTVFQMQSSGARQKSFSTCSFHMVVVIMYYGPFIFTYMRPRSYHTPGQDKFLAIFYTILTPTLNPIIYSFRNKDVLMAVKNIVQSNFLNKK
Description: as §1, §2

EC50 (mouse receptor Olfr742; FIG. 2, Example 2, SEQ ID NO: 14): 7 µM
EC50 (mouse receptor Olfr742; FIG. 5, Example 5, SEQ ID NO: 14): 16 µM
EC50 (mouse receptor Olfr1093; FIG. 2, Example 2, SEQ ID NO: 4): 46 µM
EC50 (mouse receptor Olfr1093; FIG. 5, Example 5, SEQ ID NO: 4): 62 µM
EC50 (mouse receptor Olfr738; FIG. 2, Example 2, SEQ ID NO: 12): 369 µM
EC50 (mouse receptor Olfr738; FIG. 5, Example 5, SEQ ID NO: 12): 190 µM
EC50 (mouse receptor Olfr1193; FIG. 2, Example 2, SEQ ID NO: 2): 55 µM
EC50 (mouse receptor Olfr1193; FIG. 5, Example 5, SEQ ID NO: 2): 16 µM
EC50 (mouse receptor Olfr169; FIG. 2, Example 2, SEQ ID NO: 10): 32 µM
EC50 (mouse receptor Olfr169; FIG. 5, Example 5, SEQ ID NO: 10): 23 µM
Compound: CSSSC [DMTS, dimethyl trisulfide]
